Assay results: PMC4727767, “Synthesis and In Vitro Biological Evaluation of 1,3,4-Oxadiazol-2(3H)-one and Tetrahydropyridazine-3,6-dione Derivatives of Fatty Acids” (Scientia Pharmaceutica, 2015)

Columns and labels:
Format in all cases: cell-based
[1] = tested on: HeLa (cervical) cell line; experiment: MTT cytotoxicity assay, HeLa; conditions: Homo sapiens, growth inhibition by 50% after 48 hr treatment
Excerpt: (§1) The newly synthesized compounds, 3a–d and 6a–c, combined the benefits of the aforementioned 1,3,4-oxadiazol-2(3H)-one and tetrahydropyridazine-3,6-dione moieties with their fatty acid substituent to give a new scaffold. To check the anticancer potency, the compounds 3a–d and 6a–c were screened in vitro for cytotoxicity against MDA-MB-231 (Breast), KCL-22 (Lymphoblastoid), and HeLa (cervical) cell lines, while PBMC (peripheral blood mononuclear cells) were used as a normal cell. Doxorubicin and 5-Fluorouracil were used as standard cytotoxic drugs. A period of 48 hours of drug exposure was chosen to test cytotoxicity. The MTT cell viability assay based on the conversion of the soluble yellowish MTT to the insoluble purple formazan crystal by active mitochondrial […] of living cells was used for the measurement of cell proliferation. The inhibitory concentration (IC50) of 3a–d and 6a–c compounds were screened against the MDA-MB-231, KCL-22, and HeLa cell lines as given in Table 1. The effect of standard drugs (Doxorubicin and 5-Fluorouracil) on the MDA-MB-231, KCL-22, and HeLa cell lines, and PBMC are represented in Fig. 4.
(§2) The MDA-MB-231, KCL-22, and HeLa cell lines were maintained in RPMI 1640 (Sigma Aldrich, USA) culture medium supplemented with 10% heat-inactivated fetal calf serum (Sigma Aldrich, USA), and antibiotic antimycotic solution (Sigma Aldrich, USA).
(§3) The cells were plated at a density of (5×10^4 / well) in 96-well plates and cultured for 24 hours at 37°C. The cytotoxicity of compounds was determined by the MTT assay which involves the percentage viability of a cell in response to variable doses of compounds. After incubation for 48 hours, cell proliferation was measured by adding 20 μL of MTT dye (5 mg/mL in phosphate-buffered saline) per well. The plates were incubated for 4 hours more at 37°C in a humidified chamber containing 5% CO2. Active mitochondrial dehydrogenases of living cells reduced the yellow tetrazolium salt (dye) to an insoluble purple formazan crystal. Formazan crystals formed due to the reduction of tetrazoline dye by viable cells in each well which were dissolved in 150 μL dimethyl sulfoxide, and absorbance was read at 570 nm using a plate reader (Bio-Rad). The percentage of inhibition of cell viability was determined with reference to the untreated control. To determine the IC50 value, a linear regression analysis method was used.

[2] = tested on: PBMC (peripheral blood mononuclear cells); experiment: MTT cytotoxicity assay, normal cells PBMC; conditions: 48 hr treatment
Excerpt: as §1
Fresh blood ([…]) was provided by the Blood Bank JNMC AMU, Aligarh. After dilution with the same volume of PBS, the diluted blood sample was layered on the Ficoll-Histopaque (Sigma Aldrich, USA). The mixture was centrifuged at 400×g for 30 min at 20–22°C followed by separation of the lymphocyte layer. Then the lymphocyte layer was washed and pelleted down with three volumes of PBS twice and resuspended with RPMI-1640 media with antibiotic and antimycotic solution 10%, v/v fetal calf serum (FCS).
as §3

[3] = tested on: KCL-22 (Lymphoblastoid) cell line; experiment: MTT cytotoxicity assay, KCL-22; conditions: Homo sapiens, growth inhibition by 50% after 48 hr treatment
Excerpt: as §1, §2, §3

[4] = tested on: MDA-MB-231 (Breast) cell line; experiment: MTT cytotoxicity assay, MDA-MB-231; conditions: Homo sapiens, growth inhibition by 50% after 48 hr treatment
Excerpt: as §1, §2, §3

Structure (SMILES) | IC50 [1] | IC50 [2] | IC50 [3] | IC50 [4]
C=CCCCCCCCCc1n[nH]c(=O)o1 [3a, 5-(Dec-9-en-1-yl)-1,3,4-oxadiazol-2(3H)-one] | 17.1 ± 2.1 µM | 39.7 ± 1.4 µM | 15.5 ± 1.8 µM | 12.3 ± 1.6 µM
CCCCCCCC/C=C\CCCCCCCc1n[nH]c(=O)o1 [3b, 5-[(8Z)-Heptadec-8-en-1-yl]-1,3,4-oxadiazol-2(3H)-one] | 12.3 ± 2.4 µM | > 50 µM | 13.6 ± 1.3 µM | 9.3 ± 1.3 µM
CCCCCC[C@@H](O)C/C=C\CCCCCCCc1n[nH]c(=O)o1 [3c, 5-[(8Z,11R)-11-Hydroxyheptadec-8-en-1-yl]-1,3,4-oxadiazol-2(3H)-one] | 9.6 ± 1.2 µM | 46.3 ± 1.3 µM | 8.3 ± 1.2 µM | 6.3 ± 1.1 µM
CCCCCCCCCCCCCCCCCc1n[nH]c(=O)o1 [3d, 5-Heptadecyl-1,3,4-oxadiazol-2(3H)-one] | 26.2 ± 1.5 µM | 41.4 ± 1.4 µM | 11.8 ± 1.6 µM | 15.4 ± 1.8 µM
O=c1[nH]cc(F)c(=O)[nH]1 [5-Fluorouracil, reference compound] | 2.18 ± 0.8 µM | 11.1 ± 2.3 µM | 2.52 ± 1 µM | 2.42 ± 0.09 µM
C=CCCCCCCCCC(=O)N1NC(=O)CCC1=O [6a, 1-(Undec-10-enoyl)tetrahydropyridazine-3,6-dione] | 19.3 ± 1.4 µM | 44.8 ± 1.3 µM | 16.4 ± 2.1 µM | 18.9 ± 2.2 µM
CCCCCCCC/C=C\CCCCCCCC(=O)N1NC(=O)CCC1=O [6b, 1-[(9Z)-Octadec-9-enoyl]tetrahydropyridazine-3,6-dione] | 13.4 ± 2.4 µM | 43.2 ± 1.5 µM | 8.1 ± 1.4 µM | 11.1 ± 1.8 µM
CCCCCCCCCCCCCCCC(=O)N1NC(=O)CCC1=O [6c, 1-Hexadecanoyltetrahydropyridazine-3,6-dione] | 21.2 ± 1.6 µM | 43.6 ± 1.4 µM | 17.6 ± 2.2 µM | 25.7 ± 1.4 µM
COc1cccc2c1C(=O)c1c(O)c3c(c(O)c1C2=O)C[C@@](O)(C(=O)CO)C[C@@H]3O[C@H]1C[C@H](N)[C@H](O)[C@H](C)O1 [Doxorubicin, reference compound] | 1.9 ± 0.09 µM | 9.39 ± 1.9 µM | 1.1 ± 0.08 µM | 1.6 ± 0.09 µM
